Laboratory results published in patent publication US6787318B1, “Assay for evaluating the therapeutic effectiveness of agents in reducing Alzheimer's disease pathology” (Roskamp Research Institute, LLC, priority 1999, dated 2004).
“Also recorded” adds a separate entry of the source.

Experiments:
[1] = tested on: CD40; experiment: CD40 expression in HAEC, cell-ELISA (CELISA); assay type: cell-based, human; conditions: for expression of CD40 on cytokine treatment: recombinant human cytokine
Procedure: (§1) In vitro measurement of Aβ-induced changes in expression of the inflammatory cell-surface molecules CD40 and […] in cultured HAEC and HASM cells was performed using a slightly modified ABC-based cell-ELISA (CELISA). […] After PBS washes, 4% neutral formalin solution (Sigma) was used for fixation of the cells. Following quenching of the endogenous peroxidase activity with 3% H2O2 and routine blocking of non-specific binding, the biotinylated specific secondary antibodies against the primary antibodies (goat anti-mouse or anti-rabbit IgG) were applied. The combination of EXTRAVIDIN® Proxidase and the subsequent color reaction was performed strictly according to the manufacturer's instructions in the EXTRAVIDIN® Peroxidase Staining Kit (Sigma). The absorbance of 405 nm was then measured using a microplate reader (SPECTRAmax 250, Molecular Devices). The optical density (O.D.) value for the wells in the absence of the primary antibody for each group was considered as background and subtracted as the blank. In addition, stimulation with IFN-γ for CD40 was included as a positive control in the appropriate plate. Since CD45 is not expressed by endothelial or smooth muscle cells, the assays for expression of CD45 in these Aβ-treated cells were used as negative controls throughout the experiment. In addition, to evaluate the degree of cell death or proliferation in the Aβ-treated, cells, parallel experiments were performed using the MTS (3-(4,5-dimethylthiazol-2-yl)-5-(3-carboxymethoxyphenyl)-2-(4-sulfophenyl)-2H-tetrazolium) cell-proliferation kit (Promega).

[2] = tested on: IFN-γR; experiment: IFN-γR expression in HAEC, cell-ELISA (CELISA) and Western blotting; assay type: cell-based, human; conditions: for expression of IFN-γR on cytokine treatment: recombinant human cytokine
Procedure: as §1
(§2) Activation of CD40 signalling can be achieved by stimulation with either CD40L or certain anti-CD40 mAbs. Since synthetic CD40L is not commercially available, one of the anti-CD40 mAbs (clone 3/23), which has been reported to activate CD40 signalling, was used to mimic the effect of interaction of CD40-CD40L. All Aβ-treated cells were incubated with 1 μg/ml anti-CD40 mAb […]) for four hours followed by CELISA.
The total protein was estimated using the Bio-Rad protein assay. An aliquot corresponding to 100 μg of total protein of each sample was separated by SDS/PAGE (polyacrylamide gel electrophoresis) and transferred electrophoretically to PVDF filters. Non-specific binding of antibody was blocked with 5% non-fat dry milk, in 20 mM Tris/HCl, pH 7.5/150 mM NaCl/0.1% Triton X-100. Immunoblotting was carried out with the appropriate antibody followed by alkaline phosphatase-conjugated secondary anti-immunoglobulin antibodies. These were then developed by the chemiluminescence method (Bio-Rad).

[3] = tested on: CD40; experiment: CD40 expression in Aβ-treated N9 and N60 microglial cells, flow cytometry; assay type: cell-based, murine
Description: Mononuclear cells from AD patients secrete markedly higher levels of IFN-γ compared to age-matched controls (18).

[4] = tested on: CD40; experiment: CD40 cell ELISA on cultured HAEC; assay type: cell-based, human; conditions: Aβ 50 nM to 10,000 nM; IFN-γ 5 to 500 U/mL; 48 hours
Procedure: To determine if CD40 expression on cultured HAEC was IFN-γ or Aβ dose-dependent, CD40 cell ELISA assays were performed according to published procedures. Briefly, cultured HAEC were plated at 2×10^4 cells/well in flat-bottom, 96-well tissue culture plates (Nunc-Immuno™ Plate, Denmark). […] Other HAEC were treated with a dose range (5 U/mL to 500 U/mL) of IFN-γ. […] Forty-eight hours post-treatment, plates were fixed overnight at 4° C. in 1% paraformaldehyde diluted in 1×PBS, washed three times with wash buffer (0.5% Tween 20 in 1×PBS), and subsequently incubated with […] of blocking buffer (10% fetal bovine serum in wash buffer) for one hour at 37° C. Cells were then treated with purified anti-human CD40 antibody ([…], PharMingen, Los Angeles, Calif.) in […] of blocking buffer for one hour at 37° C. Plates were washed four times with wash buffer. Biotinylated anti-mouse IgG1 (PharMingen, Los Angeles, Calif.; 1:2,000 dilution in blocking buffer, […]) was added and incubated for one hour at 37° C., followed by the addition of […] of a 1:3,000 dilution of HRP-Streptavidin (ZYMED, San Francisco, Calif.) for thirty minutes at 37° C. Plates were washed 4× with wash buffer and developed for twenty minutes at room temperature using the 3, 3′, 5, 5′-tetramethylbenzidine (TMB) one-step substrate system (DAKO, Carpinteria, Calif.) followed by the addition of 100 μL/well of 2N H2SO4 to stop the reaction. Absorbance was measured at 450 nm using a microplate spectrophotometer (SPECTRAmax 250, Molecular Devices, Sunnyvale, Calif.).

[5] = tested on: IL-1β; experiment: IL-1β secretion from HAEC, ELISA; assay type: cell-based, human
Procedure: (§3) The assay for either IL-1β or IFN-γ was performed in strict accordance with the manufacturer's instructions for the respective assay kits.
(§4) The resulting cell culture media were assayed for IL-1β or IFN-γ using ELISA. […] The lowest effective concentration was determined to be 100 nM for IFN-γ ([…]). The lowest effective concentration was determined to be 100 nM for IFN-γ (p<0.01) and 1 μM for IL-1β (p<0.01).

[6] = tested on: CD40; experiment: CD40 cell-surface expression on HAEC, flow cytometry; assay type: cell-based, human; conditions: Aβ 500 nM, IFN-γ 10 U/mL; vs control peptide or Aβ-free
Procedure: Cultured HAEC were treated as described above. […] Cells were analyzed on a FACScan flow cytometer (Becton-Dickinson, Mountain View, Calif.) using LYSIS-II software. CD40-expressing cells are defined as percentage of CD40-staining cells minus the percentage of IgG1-staining cells.
CD40 expression between control peptide-treated and Aβ-free AEC was relatively similar.

[7] = tested on: HAEC; experiment: MTS cell death/proliferation in Aβ-treated HAEC; assay type: cell-based, human; conditions: 10 or 20 μM
Procedure: as §1, with “In addition, to evaluate the degree of cell death or proliferation in the Aβ-treated, cells, parallel experiments were performed using the MTS (3-(4,5-dimethylthiazol-2-yl)-5-(3-carboxymethoxyphenyl)-2-(4-sulfophenyl)-2H-tetrazolium) cell-proliferation kit (Promega).” left out

[8] = tested on: HAEC; experiment: Cytotoxicity in HAEC, LDH release assay; assay type: cell-based, human; conditions: 500 nM, 48 hours
Procedure: Previous reports have shown that overexpression of amyloid precursor protein or exogenous addition of Aβ peptides can have cytotoxic effects on cultured endothelial cells.
In order to determine if ligation of endothelial CD40 could result in production of pro-inflammatory cytokines, IL-1β was measured following treatment with IFN-γ or Aβ peptides. […] There was not observe a significant induction of endothelial cell death by LDH release assay between treatment groups during the time course examined by IL-1β release assay (by One-way ANOVA, F(6,41)=0.322, p=0.921), supporting the hypothesis that stimulation of the CD40 pathway in endothelial cells results in an early pro-inflammatory cascade which later promotes cell injury, rather than induce cytotoxicity acutely.

[9] = tested on: CD40; experiment: CD40 protein in cultured HAEC, Western immunoblotting; assay type: cell-based, human; conditions: Aβ 5 μM, IFN-γ 100 U/mL, 48 hours
Procedure: Cultured HAEC were plated at 1×10^6 cells/well in 100 mm culture dishes (Falcon, Becton Dickinson Inc. New Jersey). […] Cells were washed in ice-cold phosphate buffered saline (PBS) three times and lysed in an ice-cold lysis buffer containing 0.2 mM EDTA, 20 mM Tris/HCl (pH 8.0), 100 mM NaCl, 3% Nonidet P-40, 50 mM NaF, 10 mM sodium pyrophosphate, 2 mM orthovanadate, 10 μg/mL each of aprotinin and leupeptin and 1 mM PMSF. After incubation for thirty minutes on ice, samples were centrifuged at 15,000 rpm for fifteen minutes, and supernatants were collected. Total protein content was estimated using the Bio-Rad protein assay. An aliquot corresponding to 50 μg of total protein of each sample was separated by SDS-PAGE and transferred electrophoretically to Hy-bond PVDF membranes (Bio-Rad, California). Nonspecific antibody binding was blocked overnight at 4° C. with 5% non-fat dry milk in TBS (20 mM Tris, 500 mM NaCl, pH 7.5). […] Blots were also carried out on identical membranes with a reference anti-actin mouse monoclonal antibody (Boehringer Mannhem), which allowed for semi-quantitative CD40 protein determination. Densitometric analysis was performed for protein bands using the Fluor-S™ MultiImager with Quantity One™ software (Bio-Rad, California).

[10] = tested on: IFN-γR; experiment: IFN-γR expression in HASM cells, cell-ELISA (CELISA); assay type: cell-based, human
Procedure: as §1, §2

[11] = tested on: IFN-γ; experiment: IFN-γ secretion from HAEC, ELISA; assay type: cell-based, human
Procedure: as §3, §2, §4

[12] = tested on: IL-1β; experiment: Human IL-1β release ELISA, HAEC with or without CD40 ligation; assay type: cell-based; conditions: for IL-1β release following CD40 ligation: 48 hour pre-treatment, then CD40L for eight hours; for IL-1β release in the absence of CD40L stimulation: Aβ 500 nM, IFN-γ 10 U/mL, 48 hours
Procedure: To examine if endothelial CD40 would be functional, cultured HAEC were plated at 5×10^4 cells/well in 6-well tissue culture plates (Nunc-Immuno™ Plate, Denmark) and incubated at 37° C. with human CD40L recombinant protein (CD40L, 0.5 ug/mL, kindly provided by Dr. Jean-Yves Bonnefoy, Glaxo Institute for Molecular Biology, Geneva) in fresh cultured media for eight hours, and cell-free supernatants were collected for IL-1β release assay. The assay for human IL-1β was performed in strict accordance with the manufacturer's instruction using the human Predicta™ IL-1β Kit (Genzyme). Absorbance at 450 nm was measured using a microplate spectrophotometer (SPECTRAmax 250, Molecular Devices, Sunnyvale, Calif.).
A second group of cells was subjected to these same treatments and incubated with CD40L ([…]) for eight hours following the initial 48 hour treatment period. IL-1β release was then quantified using a human IL-1β ELISA kit as described in materials and methods.

[13] = tested on: neurons; conditions: exogenous, at levels similar to those produced by activated microglia; cited from earlier work
[14] = tested on: cortical neurons; experiment: Cortical neurons incubated with treated N9 microglia, photomicrographs; assay type: cell-based, murine; conditions: Aβ1-42 250 nM, CD40L 0.5 μg/ml
[15] = tested on: primary cultured cortical neurons; experiment: Primary cultured microglia-mediated neuronal cell injury (micrographs, 51Cr release, LDH release); assay type: cell-based, mice; conditions: primary cultured microglia with cortical neurons
Description: CD45 positive cells (brown) are microglia, while neurofilament L-staining cells (red) are neurons. […] Results shown are from one of three independent experiments with similar results; FIG. 2E is a graph showing primary cultured microglia-mediated neuronal cell injury as evidenced by ^51Cr release. Data are reported as mean ^51Cr release values±1 SEM and n=9 for each condition presented. […] N=9 for each condition presented.
Having shown that Aβ peptides activate microglia through the CD40 pathway, it was then investigated whether activation of Aβ-pretreated microglia by ligation of CD40 could mediate neuronal cell injury (23,24).

[16] = tested on: TNF-α; experiment: TNF-α release from cultured microglia, TNF-α ELISA; assay type: cell-based, mice; conditions: microglia pre-treated with 500 nM Aβ1-42
[17] = increasing concentrations, 24 hours

## IL-1β: recombinant human cytokine
[1]
  expression of CD40 on cytokine treatment: up-regulate the expression of CD40 and IFN-γR
[2]
  expression of IFN-γR on cytokine treatment: up-regulate the expression of CD40 and IFN-γR

## Aβ1-40: amyloid β peptide 1-40, freshly solubilized
[1]
  CD40 expression in HAEC, dose dependence: dose-dependently increase CD40 expression
[1]; HAEC
  lowest effective concentration for CD40 expression: 10 µM
[3]; 250 nM freshly solubilized peptide, N9 and N60 cells, vs control peptide or Aβ-free
  CD40 expression on cultured microglial cells: significantly induce CD40 expression
[4]
  dose dependence of endothelial CD40: marked increase in endothelial CD40 which is dose-dependent
[5]; 20 μM
  IL-1β secretion at largest dose: has no effect
[5]; [17]
  IL-1β secretion, dose dependence: does not show a dose-dependent effect
[6]
  CD40 cell-surface expression, flow cytometry: significantly induce CD40 expression
[7]
  cell death, MTS assay, HAEC: significant amount of cell death
[8]
  cell injury, LDH release: no significant induction of cell injury
[2]; 48 hours
  IFN-γR expression in HAEC: neither Aβ1-40 nor Aβ25-35 modulate the IFN-γR expression
[9]
  increase in CD40 expression vs control peptide or Aβ-free, Western: ~2 fold
[10]; 48 hours
  IFN-γR expression in HASM cells: induces a significant effect on IFN-γR
[10]; Aβ-treated cells, 1 μg/ml mAb, four hours
  IFN-γR expression in HASM cells on CD40 ligation by mAb (3/23): synergistic
[11]; 20 μM, vs control
  IFN-γ production at largest dose: does induce a significant production of IFN-γ
[11]; [17]
  IFN-γ secretion, dose dependence: does not show a dose-dependent effect
[12]
  IL-1β release following CD40 ligation: synergistic effect
  IL-1β release in the absence of CD40L stimulation: not sufficient to elicit IL-1β

## IFN-γ: Human IFN-γ recombinant protein (Genzyme)
[1]
  expression of CD40 on cytokine treatment: up-regulate the expression of CD40 and IFN-γR
[3]; low dose 10 U/mL, Aβ-challenged microglia
  effect of cytokine on Aβ-dependent CD40 expression: synergistically enhances Aβ-dependent CD40 expression
[4]
  dose dependence of endothelial CD40: dose-dependent induction of endothelial CD40
[6]
  CD40 cell-surface expression, flow cytometry: significantly induce CD40 expression
[2]
  expression of IFN-γR on cytokine treatment: up-regulate the expression of CD40 and IFN-γR
[9]
  increase in CD40 expression vs control peptide or Aβ-free, Western: ~2.5 fold
[12]
  IL-1β release following CD40 ligation: synergistic effect; also recorded: more pronounced than Aβ's effect
  IL-1β release in the absence of CD40L stimulation: not sufficient to elicit IL-1β

## TNF-α
[13]
  neuronal injury and death, LDH release: dose-dependently induces neuronal injury and death

B1: CD40L: human CD40L recombinant protein (protein)
chain: ENSFEMQKGDQNPQIAAHVISEASSKTTSVLQWAEKGYYTMSNNLVTLENGKQLTVKRQGLYYIYAQVTFCSNREASSQAPFIASLCLKSPGRFERILLRAANTHSSAKPCGQQSIHLGGVFELQPGASVFVNVTDPSQVSHGTGFTSFGLLKL
[14]
  change in cortical neurons: no change in cortical neurons
[15]
  neuronal degeneration / injury in micrographs: not detectable
[12]; CD40L and Aβ-free condition
  IL-1β release: approximately 50 pg/mg total protein
[16]
  TNF-α release on addition of CD40L: synergistically increases TNF-α release
